What all share (test): biochemical
Format in all cases: binding

Test [1] concerns the target T1, panel of 442 kinases (Homo sapiens, UniProt P06241).
T1 construct: purchased Ambit Biosciences (scanMAXX KINOMEscan)
As to conditions: kinase FYN; for remaining activity at 1 µM: read-out: % of control at 1 µM.

Test [2] has as its target T2, panel of 442 kinases (Homo sapiens, UniProt P51812).
T2 construct: purchased Ambit Biosciences (scanMAXX KINOMEscan)
As to conditions: kinase RSK2(Kin.Dom.1-N-terminal); for remaining activity at 1 µM: read-out: RSK2(Kin.Dom.1-N-terminal) (% of control at 1 µM).

The target of test [3] is T3, panel of 442 kinases (Homo sapiens, UniProt Q6XUX3).
T3 construct: purchased Ambit Biosciences (scanMAXX KINOMEscan)
T3 sequence (Q6XUX3 1-929): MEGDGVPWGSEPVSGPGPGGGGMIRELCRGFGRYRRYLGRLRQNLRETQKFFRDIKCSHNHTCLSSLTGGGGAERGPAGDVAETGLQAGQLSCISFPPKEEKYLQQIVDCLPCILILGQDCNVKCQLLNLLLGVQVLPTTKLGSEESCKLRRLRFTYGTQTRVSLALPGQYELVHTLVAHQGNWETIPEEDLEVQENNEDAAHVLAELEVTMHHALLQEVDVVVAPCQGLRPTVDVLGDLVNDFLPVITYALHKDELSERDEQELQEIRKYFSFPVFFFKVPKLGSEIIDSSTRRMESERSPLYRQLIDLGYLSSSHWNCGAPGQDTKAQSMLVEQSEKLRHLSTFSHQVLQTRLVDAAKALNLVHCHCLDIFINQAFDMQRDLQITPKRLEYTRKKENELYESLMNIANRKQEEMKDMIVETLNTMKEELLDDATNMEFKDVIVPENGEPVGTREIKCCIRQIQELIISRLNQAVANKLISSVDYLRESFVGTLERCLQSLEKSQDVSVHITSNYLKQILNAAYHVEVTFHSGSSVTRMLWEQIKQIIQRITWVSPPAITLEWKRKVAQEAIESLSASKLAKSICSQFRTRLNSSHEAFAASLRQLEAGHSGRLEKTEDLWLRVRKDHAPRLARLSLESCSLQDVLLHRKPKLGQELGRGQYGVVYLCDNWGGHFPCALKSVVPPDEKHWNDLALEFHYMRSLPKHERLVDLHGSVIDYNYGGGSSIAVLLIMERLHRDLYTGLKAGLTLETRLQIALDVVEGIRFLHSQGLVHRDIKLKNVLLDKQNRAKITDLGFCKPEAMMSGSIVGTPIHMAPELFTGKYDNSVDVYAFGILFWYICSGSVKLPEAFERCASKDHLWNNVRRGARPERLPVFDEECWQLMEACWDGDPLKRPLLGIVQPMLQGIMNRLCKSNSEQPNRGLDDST
As to conditions: kinase RIPK5; for remaining activity at 1 µM: read-out: RIPK5 (% of control at 1 µM).

For test [4], the target named is T4, panel of 442 kinases (Homo sapiens, UniProt Q8WXR4).
T4 construct: purchased Ambit Biosciences (scanMAXX KINOMEscan)
T4 sequence (Q8WXR4 1-1341): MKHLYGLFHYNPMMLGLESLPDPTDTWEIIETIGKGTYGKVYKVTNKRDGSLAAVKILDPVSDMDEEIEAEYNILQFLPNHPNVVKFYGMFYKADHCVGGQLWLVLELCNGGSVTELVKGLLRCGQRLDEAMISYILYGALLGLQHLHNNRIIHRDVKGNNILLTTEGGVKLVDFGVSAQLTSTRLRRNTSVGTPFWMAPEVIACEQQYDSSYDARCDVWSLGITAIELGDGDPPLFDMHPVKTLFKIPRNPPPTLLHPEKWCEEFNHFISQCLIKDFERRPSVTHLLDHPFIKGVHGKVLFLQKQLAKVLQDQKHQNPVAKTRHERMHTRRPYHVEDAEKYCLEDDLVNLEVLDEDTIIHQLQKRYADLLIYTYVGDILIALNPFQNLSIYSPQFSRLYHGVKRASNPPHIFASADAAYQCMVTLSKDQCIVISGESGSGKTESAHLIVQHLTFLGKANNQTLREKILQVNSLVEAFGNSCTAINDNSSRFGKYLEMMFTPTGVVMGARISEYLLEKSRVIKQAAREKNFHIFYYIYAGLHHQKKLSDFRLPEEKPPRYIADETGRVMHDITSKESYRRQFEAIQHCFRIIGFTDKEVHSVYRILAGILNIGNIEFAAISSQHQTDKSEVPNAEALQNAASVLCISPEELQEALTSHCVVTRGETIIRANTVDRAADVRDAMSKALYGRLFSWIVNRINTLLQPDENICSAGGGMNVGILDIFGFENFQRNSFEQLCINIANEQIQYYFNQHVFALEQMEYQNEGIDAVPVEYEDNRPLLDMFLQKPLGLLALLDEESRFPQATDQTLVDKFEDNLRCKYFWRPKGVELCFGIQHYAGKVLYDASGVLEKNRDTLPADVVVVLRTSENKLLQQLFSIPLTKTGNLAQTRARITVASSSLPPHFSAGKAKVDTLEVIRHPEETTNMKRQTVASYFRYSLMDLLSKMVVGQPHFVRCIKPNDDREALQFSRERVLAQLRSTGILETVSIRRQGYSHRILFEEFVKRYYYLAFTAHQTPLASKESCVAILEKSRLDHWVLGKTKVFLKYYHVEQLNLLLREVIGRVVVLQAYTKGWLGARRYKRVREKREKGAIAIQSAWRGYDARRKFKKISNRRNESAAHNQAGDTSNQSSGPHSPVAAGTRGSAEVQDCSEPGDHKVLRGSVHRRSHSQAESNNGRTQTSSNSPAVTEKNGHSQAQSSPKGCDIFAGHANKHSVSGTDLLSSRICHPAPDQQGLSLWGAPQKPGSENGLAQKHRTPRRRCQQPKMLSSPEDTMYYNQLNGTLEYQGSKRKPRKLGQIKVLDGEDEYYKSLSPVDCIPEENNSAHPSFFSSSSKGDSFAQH
As to conditions: kinase MYO3B; for remaining activity at 1 µM: read-out: % of control at 1 µM.

The target in test [5] is T5, panel of 442 kinases (Homo sapiens, UniProt Q9Y6E0).
T5 construct: purchased Ambit Biosciences (scanMAXX KINOMEscan)
T5 sequence (Q9Y6E0 whole entry): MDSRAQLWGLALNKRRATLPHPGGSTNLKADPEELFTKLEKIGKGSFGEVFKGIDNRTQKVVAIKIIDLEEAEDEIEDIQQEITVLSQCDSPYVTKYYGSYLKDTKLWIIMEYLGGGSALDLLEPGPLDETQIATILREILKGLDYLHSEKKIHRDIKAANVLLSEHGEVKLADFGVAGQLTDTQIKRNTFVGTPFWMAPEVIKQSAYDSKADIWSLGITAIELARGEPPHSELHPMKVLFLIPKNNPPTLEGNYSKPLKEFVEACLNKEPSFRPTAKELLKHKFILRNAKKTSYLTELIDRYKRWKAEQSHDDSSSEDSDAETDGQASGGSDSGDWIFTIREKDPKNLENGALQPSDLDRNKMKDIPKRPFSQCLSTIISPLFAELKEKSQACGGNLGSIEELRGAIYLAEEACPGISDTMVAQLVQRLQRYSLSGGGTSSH
As to conditions: kinase MST3; for remaining activity at 1 µM: read-out: % of control at 1 µM.

Test [6] concerns the target T6, panel of 442 kinases (Homo sapiens, UniProt Q9Y6R4).
T6 construct: purchased Ambit Biosciences (scanMAXX KINOMEscan)
As to conditions: kinase MAP3K4; for remaining activity at 1 µM: read-out: % of control at 1 µM.

The target in test [7] is T7, panel of 442 kinases (Homo sapiens, UniProt P10721, V559D/V654A).
T7 construct: purchased Ambit Biosciences (scanMAXX KINOMEscan)
T7 sequence (P10721 26-976 V559D/V654A): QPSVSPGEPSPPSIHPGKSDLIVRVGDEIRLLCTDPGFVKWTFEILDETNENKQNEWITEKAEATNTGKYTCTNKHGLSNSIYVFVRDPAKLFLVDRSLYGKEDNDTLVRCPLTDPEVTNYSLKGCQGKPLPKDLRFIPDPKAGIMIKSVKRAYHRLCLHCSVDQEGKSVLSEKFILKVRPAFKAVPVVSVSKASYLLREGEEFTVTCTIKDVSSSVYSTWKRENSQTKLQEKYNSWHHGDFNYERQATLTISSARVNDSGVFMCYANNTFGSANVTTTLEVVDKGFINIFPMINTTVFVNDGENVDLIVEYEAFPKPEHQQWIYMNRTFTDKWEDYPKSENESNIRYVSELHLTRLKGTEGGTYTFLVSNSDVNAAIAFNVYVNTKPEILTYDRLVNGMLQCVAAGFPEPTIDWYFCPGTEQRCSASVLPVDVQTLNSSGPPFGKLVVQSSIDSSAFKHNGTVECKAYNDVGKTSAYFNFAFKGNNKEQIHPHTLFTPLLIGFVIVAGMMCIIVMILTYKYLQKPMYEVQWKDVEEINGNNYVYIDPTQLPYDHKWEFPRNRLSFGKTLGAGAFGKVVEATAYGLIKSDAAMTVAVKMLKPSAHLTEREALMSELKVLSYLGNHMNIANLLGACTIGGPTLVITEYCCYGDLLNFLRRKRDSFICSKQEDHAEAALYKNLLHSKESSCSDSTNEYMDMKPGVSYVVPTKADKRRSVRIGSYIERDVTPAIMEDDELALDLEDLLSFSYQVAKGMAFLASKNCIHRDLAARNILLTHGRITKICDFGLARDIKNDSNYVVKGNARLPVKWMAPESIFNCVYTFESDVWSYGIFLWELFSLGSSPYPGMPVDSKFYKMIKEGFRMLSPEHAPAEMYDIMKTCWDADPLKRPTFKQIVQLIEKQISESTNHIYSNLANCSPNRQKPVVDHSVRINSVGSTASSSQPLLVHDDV
As to conditions: kinase KIT(V559D,V654A); for remaining activity at 1 µM: read-out: % of control at 1 µM.

Test [8] has as its target T8, panel of 442 kinases (Homo sapiens, UniProt Q16539).
T8 construct: purchased Ambit Biosciences (scanMAXX KINOMEscan)
As to conditions: kinase p38-alpha; for remaining activity at 1 µM: read-out: % of control at 1 µM.

Setting [9] is: 10 µM, read-out: % of control at 10 µM.

T2 sequence (P51812 whole entry): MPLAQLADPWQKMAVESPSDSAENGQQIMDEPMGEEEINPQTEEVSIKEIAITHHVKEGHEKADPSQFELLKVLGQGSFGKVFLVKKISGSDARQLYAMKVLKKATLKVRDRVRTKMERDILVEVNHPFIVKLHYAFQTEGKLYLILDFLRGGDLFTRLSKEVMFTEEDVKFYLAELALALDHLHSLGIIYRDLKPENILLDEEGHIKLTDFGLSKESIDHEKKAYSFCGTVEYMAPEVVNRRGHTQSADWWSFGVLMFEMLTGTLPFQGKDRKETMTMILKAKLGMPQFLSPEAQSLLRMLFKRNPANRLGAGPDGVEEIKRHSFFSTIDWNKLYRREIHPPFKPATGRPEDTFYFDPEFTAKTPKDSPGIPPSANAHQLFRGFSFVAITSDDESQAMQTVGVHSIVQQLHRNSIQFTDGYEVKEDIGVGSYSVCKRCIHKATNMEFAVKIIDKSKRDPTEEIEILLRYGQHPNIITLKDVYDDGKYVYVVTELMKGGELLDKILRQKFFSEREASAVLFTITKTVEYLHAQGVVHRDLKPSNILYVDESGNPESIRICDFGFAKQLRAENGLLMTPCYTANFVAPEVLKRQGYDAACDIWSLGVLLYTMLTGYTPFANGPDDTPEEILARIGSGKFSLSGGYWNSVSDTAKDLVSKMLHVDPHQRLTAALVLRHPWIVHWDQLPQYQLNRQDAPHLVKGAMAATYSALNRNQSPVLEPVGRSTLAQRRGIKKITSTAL
T8 sequence (Q16539 whole entry): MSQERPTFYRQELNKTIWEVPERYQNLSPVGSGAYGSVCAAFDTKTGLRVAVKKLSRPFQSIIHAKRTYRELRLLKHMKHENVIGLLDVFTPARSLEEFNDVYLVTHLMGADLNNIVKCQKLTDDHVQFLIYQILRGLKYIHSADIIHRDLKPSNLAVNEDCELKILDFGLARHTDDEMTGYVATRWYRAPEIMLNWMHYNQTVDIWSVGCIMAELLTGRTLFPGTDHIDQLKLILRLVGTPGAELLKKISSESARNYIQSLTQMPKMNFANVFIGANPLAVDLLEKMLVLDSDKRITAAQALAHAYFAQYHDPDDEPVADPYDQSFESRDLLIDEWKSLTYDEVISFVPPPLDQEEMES
T6 sequence (Q9Y6R4 whole entry): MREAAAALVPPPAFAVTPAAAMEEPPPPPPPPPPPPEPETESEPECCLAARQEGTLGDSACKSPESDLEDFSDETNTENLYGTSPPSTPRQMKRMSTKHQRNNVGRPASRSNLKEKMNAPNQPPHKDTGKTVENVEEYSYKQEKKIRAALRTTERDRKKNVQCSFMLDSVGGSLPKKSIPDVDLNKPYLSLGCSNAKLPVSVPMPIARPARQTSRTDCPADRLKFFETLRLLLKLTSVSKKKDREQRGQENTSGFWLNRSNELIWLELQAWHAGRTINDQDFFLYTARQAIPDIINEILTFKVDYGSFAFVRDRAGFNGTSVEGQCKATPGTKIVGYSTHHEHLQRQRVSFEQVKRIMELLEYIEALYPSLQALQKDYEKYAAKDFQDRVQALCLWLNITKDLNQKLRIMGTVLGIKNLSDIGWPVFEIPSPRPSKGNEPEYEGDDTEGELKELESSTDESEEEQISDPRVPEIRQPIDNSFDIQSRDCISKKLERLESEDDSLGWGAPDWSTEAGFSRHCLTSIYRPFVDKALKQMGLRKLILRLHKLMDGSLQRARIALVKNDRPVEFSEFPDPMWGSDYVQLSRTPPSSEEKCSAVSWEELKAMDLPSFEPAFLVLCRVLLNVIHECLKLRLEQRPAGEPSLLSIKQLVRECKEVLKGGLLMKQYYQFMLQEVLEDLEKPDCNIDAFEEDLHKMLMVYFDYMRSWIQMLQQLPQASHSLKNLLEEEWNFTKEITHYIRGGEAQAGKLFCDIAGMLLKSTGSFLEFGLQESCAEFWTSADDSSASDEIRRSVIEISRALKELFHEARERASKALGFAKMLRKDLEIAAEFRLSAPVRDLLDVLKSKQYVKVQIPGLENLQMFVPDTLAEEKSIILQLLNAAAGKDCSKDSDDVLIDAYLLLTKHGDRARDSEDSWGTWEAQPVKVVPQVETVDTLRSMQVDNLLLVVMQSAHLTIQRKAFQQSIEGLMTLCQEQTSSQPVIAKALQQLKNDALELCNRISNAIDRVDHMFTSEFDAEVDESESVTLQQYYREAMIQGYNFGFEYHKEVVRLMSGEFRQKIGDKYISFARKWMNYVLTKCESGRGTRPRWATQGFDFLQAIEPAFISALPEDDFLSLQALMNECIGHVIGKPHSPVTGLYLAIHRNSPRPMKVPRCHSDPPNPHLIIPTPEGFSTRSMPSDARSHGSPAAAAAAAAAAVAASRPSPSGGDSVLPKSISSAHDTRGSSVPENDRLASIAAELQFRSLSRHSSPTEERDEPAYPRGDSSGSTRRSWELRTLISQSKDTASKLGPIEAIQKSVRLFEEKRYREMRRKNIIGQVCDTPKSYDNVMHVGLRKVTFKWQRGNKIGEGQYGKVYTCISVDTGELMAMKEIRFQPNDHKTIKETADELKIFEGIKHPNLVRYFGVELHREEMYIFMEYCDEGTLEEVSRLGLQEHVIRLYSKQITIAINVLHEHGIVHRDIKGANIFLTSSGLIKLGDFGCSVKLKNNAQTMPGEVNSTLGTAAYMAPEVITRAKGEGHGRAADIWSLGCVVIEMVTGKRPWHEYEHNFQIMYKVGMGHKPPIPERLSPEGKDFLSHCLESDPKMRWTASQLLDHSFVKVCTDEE
T1 sequence (P06241 whole entry): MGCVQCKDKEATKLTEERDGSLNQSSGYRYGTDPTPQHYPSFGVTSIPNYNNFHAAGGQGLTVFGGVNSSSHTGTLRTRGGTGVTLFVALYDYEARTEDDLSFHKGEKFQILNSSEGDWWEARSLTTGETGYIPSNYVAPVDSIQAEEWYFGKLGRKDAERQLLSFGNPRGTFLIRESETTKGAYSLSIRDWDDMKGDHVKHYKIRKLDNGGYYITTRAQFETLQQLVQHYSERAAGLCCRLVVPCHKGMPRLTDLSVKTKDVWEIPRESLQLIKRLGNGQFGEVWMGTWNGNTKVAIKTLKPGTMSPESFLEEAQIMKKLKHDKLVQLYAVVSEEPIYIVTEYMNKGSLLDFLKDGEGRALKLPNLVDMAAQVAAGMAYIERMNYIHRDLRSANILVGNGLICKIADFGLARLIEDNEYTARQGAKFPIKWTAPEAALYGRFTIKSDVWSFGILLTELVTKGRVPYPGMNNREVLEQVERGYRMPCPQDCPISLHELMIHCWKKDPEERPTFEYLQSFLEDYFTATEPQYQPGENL

As to `COc1ncc(-c2ccc3nccc(-c4ccnnc4)c3c2)cc1NS(=O)(=O)c1ccc(F)cc1F` [Omipalisib], the remaining activity at 1 µM at panel of 442 kinases [1] turned out to be 100%; on panel of 442 kinases [2], 62%; at panel of 442 kinases [3], 100%; at panel of 442 kinases [4], 91%; at panel of 442 kinases [5], 100%; on panel of 442 kinases [6], 100%. Further, the remaining activity at 1 µM is 100% on panel of 442 kinases [7] and 97% on panel of 442 kinases [8].

As for `Cn1c(=O)n(-c2ccc(C(C)(C)C#N)cc2)c2c3cc(-c4cnc5ccccc5c4)ccc3ncc21` [Dactolisib, 2-methyl-2-[4-(3-methyl-2-oxo-8-quinolin-3-yl-2,3-dihydroimidazo[4,5-c]quinolin-1-yl)-phenyl] propionitrile], the remaining activity at 1 µM is 81% on panel of 442 kinases [1]; 80% at panel of 442 kinases [3]; 81% on panel of 442 kinases [4]; 82% at panel of 442 kinases [5]; 96% on panel of 442 kinases [6]; 84% at panel of 442 kinases [7]. The remaining activity at 1 µM on panel of 442 kinases [8] came out at 87%.

As for `Nc1cc(C(F)(F)F)c(-c2cc(N3CCOCC3)nc(N3CCOCC3)n2)cn1` [Buparlisib], the remaining activity at 1 µM is 100% on panel of 442 kinases [1]; 99% on panel of 442 kinases [2]; 100% on panel of 442 kinases [3]; 51% on panel of 442 kinases [4]; 100% on panel of 442 kinases [5]; 92% at panel of 442 kinases [6]. The remaining activity at 1 µM on panel of 442 kinases [7] was found to be 100%; on panel of 442 kinases [8], 87%. Also, the remaining activity at 10 µM on panel of 442 kinases [1] (setting [9]) is 100%; on panel of 442 kinases [2] (10 µM, read-out: RSK2(Kin.Dom.1-N-terminal) (% of control at 10 µM)), 87%; on panel of 442 kinases [3] (10 µM, read-out: RIPK5 (% of control at 10 µM)) it was 89%; on panel of 442 kinases [4] (setting [9]), 73%; at panel of 442 kinases [5] (setting [9]) it was 100%; on panel of 442 kinases [6] (setting [9]) it was 100%. The remaining activity at 10 µM turned out to be 98% on panel of 442 kinases [7] (setting [9]) and 100% on panel of 442 kinases [8] (setting [9]).

As to `FC(F)c1nc2ccccc2n1-c1nc(N2CCOCC2)nc(N2CCOCC2)n1` [ZSTK474, 2-(difluoromethyl)-1-[4,6-di(4-morpholinyl)-1,3,5-triazin-2-yl]-1H-benzimidazole], the remaining activity at 1 µM came to 80% at panel of 442 kinases [1]; 88% on panel of 442 kinases [2]; 92% at panel of 442 kinases [3]; 64% at panel of 442 kinases [4]; 99% on panel of 442 kinases [5]; 97% at panel of 442 kinases [6]. Further, the remaining activity at 1 µM turned out to be 95% on panel of 442 kinases [7] and 100% at panel of 442 kinases [8].

The values are drawn from publication PMC5564600 (Oncotarget, 2017).
